Reference: patent US8017316B2, “Methods and compositions for the identification of insect repellent compounds” (Duke University, priority 2007, dated 2011)

Tests used:
[1] = system: wild-type Canton S flies; assay: Avoidance Evaluation Chamber assay, wild type flies; type: in vivo, Drosophila melanogaster; details: for avoidance without the third antennal segment: wild type Canton S flies, third antennal segment removed
Description: (§1) Avoidance Evaluation Chambers: 3% agar (Fisher Scientific, Pittsburgh, Pa., United States of America) and 3% sucrose (Fisher Scientific) was dissolved in distilled H2O. 0.2% (1:500, or 20 mM) N,N-diethyl-3-methylbenzamide (DEET) or 0.01% (1:10000, or 1 mM) allyl-isothiocyanate (AITC) was added and mixed into the agar/sucrose solution immediately before 22 milliliters of solution was poured into each 60 diameter×15 mm HBD Falcon Standard Tissue Culture Dish. The agar was allowed for harden for approximately 1 hour. Using a template below each dish, the agar was then split along the midline with a clean razor blade and half of each plate was excised and placed onto a clean absorbent towel. In order to assess preference, the empty half of each plate was then replaced with solidified 3% agar and 3% sucrose without the addition of DEET or AITC. Care was taken to not contaminate surfaces of toxin and toxin-free agar during this switch.
(§2) Olfactory Desensitization: To prevent most odorant detection, the third antennal segment of each antennae was removed from flies under CO2 anesthesia 24 hours before avoidance trials. Removal of both aristae, but not any part of the antennae, was used as a sham to control for non-specific effects that may have resulted from the surgical procedure.
(§3) Trial Recording: Testing areas (e.g., plates), each containing toxin-containing and toxin-free halves, were placed on a fluorescent-bulb containing light box and arranged so that all fit within the viewfinder of a digital video camera (SONY Handycam; see FIG. 1). Multiple flies to be used on each plate of the trial were sorted under CO2 anesthesia 24 hours before the experiment into glass vials containing fly food. During the experiment, the flies were transferred onto the agar plates by gentle tapping after vials were cooled horizontally on ice. The lids were replaced on the agar plates after fly transfer and animals were allowed a 5-minute acclimation time prior to the start of each trial. The video camera began recording after this acclimation time and ran for 60 minutes. External noise and odors were avoided throughout the trial.
Data Analysis—Avoidance Behavior: Video was downloaded from the digital video camera to a computer using Image Video Mixer (Sony Electronics Inc.) and saved as an MPEG2 file. The movie was then converted to and saved as an image stack at the rate of 1-3 images/second through Image Video Machine (DanDans Digital Media, Boston, Mass., United States of America). Image stacks for each trial were then analyzed at 10 or 15-minute intervals. Each interval was imported and converted to grayscale into ImageJ (Rasband, ImageJ, U.S. National Institutes of Health, Bethesda, Md., United States of America) as a stack and thresholded (Image→Threshold) so that only flies were visible. Care was taken to make sure only flies were visible in each slice since fluorescence in the light box may be of different brightness in each image. The Z-stack Standard Deviation function of ImageJ (Image→Stack→Z-stack→Standard Deviation) was used to visualize the position of all flies throughout each time interval. […] To quantify this amount of time each space was occupied, the “mean gray value” for each side was calculated using the Analyze Measurements menu of ImageJ. […]
Alternatively, the threshold intensity of a single frame in NIH ImageJ was determined automatically; this function highlighted only the flies against an otherwise white background. […]

[2] = system: painless mutant flies; assay: Avoidance Evaluation Chamber assay, painless mutant flies; type: in vivo, Drosophila melanogaster
Description: (§4) Drosophila Stocks. All fly stocks were maintained on conventional cornmeal-agar-molasses medium under a 12 hour light/12 hour dark cycle at 22° C. Fly strains used were the wild-type Canton-S, the painless mutant pain1 (EP(2)2451), the dTRPA1 mutant (dTRPA1^23-5939/Df(3L)ED4415), the painless− dTRPA1 double mutant pain1; dTRPA1^23-5939, the Or83b mutant W;ΔOr83b (provided by Dr. Hubert Amrein, Duke University, Durham, N.C., United States of America), and the Or83b-painless double mutant pain1; W;ΔOr83b.
as §1, §2, §3
Data Analysis—Avoidance Behavior: Video was downloaded from the digital video camera to a computer using Image Video Mixer (Sony Electronics Inc.) and saved as an MPEG2 file. The movie was then converted to and saved as an image stack at the rate of 1-3 images/second through Image Video Machine (DanDans Digital Media, Boston, Mass., United States of America). Image stacks for each trial were then analyzed at 10 or 15-minute intervals. Each interval was imported and converted to grayscale into ImageJ (Rasband, ImageJ, U.S. National Institutes of Health, Bethesda, Md., United States of America) as a stack and thresholded (Image→Threshold) so that only flies were visible. Care was taken to make sure only flies were visible in each slice since fluorescence in the light box may be of different brightness in each image. The Z-stack Standard Deviation function of ImageJ (Image→Stack→Z-stack→Standard Deviation) was used to visualize the position of all flies throughout each time interval. This inverts and stacks pixels (flies) from each stack image so that the most occupied areas are standardized to be the brightest, and the least occupied areas remain dark. To quantify this amount of time each space was occupied, the “mean gray value” for each side was calculated using the Analyze Measurements menu of ImageJ. […]

[3] = system: Or83b mutants; assay: Avoidance Evaluation Chamber assay, Or83b mutant flies; type: in vivo, Drosophila melanogaster; details: olfaction-deficient Or83b mutants
Description: as §4
(§5) Avoidance Evaluation Chambers: 3% agar (Fisher Scientific, Pittsburgh, Pa., United States of America) and 3% sucrose (Fisher Scientific) was dissolved in distilled H2O. […]
(§6) Data Analysis—Avoidance Behavior: Video was downloaded from the digital video camera to a computer using Image Video Mixer (Sony Electronics Inc.) and saved as an MPEG2 file. […] Image stacks for each trial were then analyzed at 10 or 15-minute intervals. […] Care was taken to make sure only flies were visible in each slice since fluorescence in the light box may be of different brightness in each image. […] To quantify this amount of time each space was occupied, the “mean gray value” for each side was calculated using the Analyze Measurements menu of ImageJ. […]

[4] = system: dTRPA1 mutant flies; assay: Avoidance Evaluation Chamber assay, dTRPA1 mutant flies; type: in vivo, Drosophila melanogaster
Description: as §4, §5, §6

[5] = system: Drosophila flies; assay: Evaluation of activity level (speed of flies); type: in vivo, Drosophila melanogaster
Description: Evaluation of Activity Level—Speed of Flies: Video of trials were downloaded and converted to image stacks and thresholded as described above. The ImageJ plug-in “Multitracker” was used to analyze the paths taken by each fly. The total distance traveled by all flies on each plate was calculated using the Multitracker plug-in, and this distance was divided by the time interval (in minutes) to gauge the average speed of flies on each plate in path lengths/minute.

[6] = target: T1, Drosophila painless (Drosophila melanogaster, UniProt Q9W0Y6); assay: Calcium imaging of S2R+ cells transfected with painless; type: cell-based; details: 0.5% DEET, six regions of interest
T1 construct: expressed in transfected cells; host or cells: Drosophila S2R+ cells
T1 sequence (Q9W0Y6 1-913): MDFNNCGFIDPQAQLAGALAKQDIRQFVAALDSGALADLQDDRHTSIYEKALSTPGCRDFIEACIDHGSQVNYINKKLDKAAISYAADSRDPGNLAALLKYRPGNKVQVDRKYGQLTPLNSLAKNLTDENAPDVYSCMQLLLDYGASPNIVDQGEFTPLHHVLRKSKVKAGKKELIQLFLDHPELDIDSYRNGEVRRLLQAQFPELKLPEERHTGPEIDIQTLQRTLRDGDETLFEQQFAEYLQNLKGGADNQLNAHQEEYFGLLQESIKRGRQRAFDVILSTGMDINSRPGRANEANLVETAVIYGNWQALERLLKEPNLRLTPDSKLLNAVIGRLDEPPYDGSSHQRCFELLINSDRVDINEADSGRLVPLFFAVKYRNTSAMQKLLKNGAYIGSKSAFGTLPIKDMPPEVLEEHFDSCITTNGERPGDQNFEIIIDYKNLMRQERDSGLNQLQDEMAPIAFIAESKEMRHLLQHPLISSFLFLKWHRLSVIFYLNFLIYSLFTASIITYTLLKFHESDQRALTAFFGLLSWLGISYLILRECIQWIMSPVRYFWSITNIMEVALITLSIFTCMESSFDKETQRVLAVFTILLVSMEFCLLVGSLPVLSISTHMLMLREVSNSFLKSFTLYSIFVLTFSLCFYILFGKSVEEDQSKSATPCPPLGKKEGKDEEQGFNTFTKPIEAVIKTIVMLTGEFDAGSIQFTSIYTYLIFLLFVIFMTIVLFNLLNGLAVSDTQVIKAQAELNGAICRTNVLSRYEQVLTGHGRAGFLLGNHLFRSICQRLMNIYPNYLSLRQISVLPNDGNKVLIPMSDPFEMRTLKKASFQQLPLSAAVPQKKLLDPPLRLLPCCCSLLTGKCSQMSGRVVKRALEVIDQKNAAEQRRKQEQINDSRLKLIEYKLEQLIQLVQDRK
Description: Calcium Phosphate Transfection of Drosophila S2R+ Cells: Drosophila S2R+ cells were maintained at room temperature, in ambient atmosphere, in Schneider's Drosophila medium modified with L-glutamine plus 10% heat-inactivated fetal bovine serum. On the day before DNA transfection, cells were plated at a density of 1.2×10^5 cells per cm^2 growth area. DNA to be transfected was added to 250 mM CaCl2 (a volume equal to 1/20th of the volume of the medium in the dish of cells to be transfected) then this mixture was added dropwise to the same volume of 280 mM NaCl/1.5 mM/Na2HPO4/50 mM HEPES, pH 7.08 (2×HEPES buffered saline) while bubbling air gently through the liquid to mix. Precipitate was allowed to form at room temperature for 40 minutes. Immediately before introducing the precipitate, all growth medium was removed form the cells and fresh growth medium was added. Precipitate was added dropwise to the cells, and the dish was gently swirled. 18-24 hour later all liquid on the dish was withdrawn and was replaced with fresh growth medium. Expression was examined on the third day.
For the DEET experiments, 2 ml of culture medium containing 5.75×10^5 cells/ml was placed onto #1.5 25 mm diameter round glass cover slips placed in 6-well multiwell dishes. […]

[7] = system: non-transfected S2R+ cells; assay: Calcium imaging of non-transfected S2R+ cells; type: cell-based, Drosophila; details: 0.5% DEET, seven regions of interest
Description: Calcium Imaging for S2R+ cells: the following protocol was followed:
100 μl of the following Fluo4+Fura-Red solution was added per well:
Added 200 μl of fly saline.
The ligand solution was added (with or without Ca++ fly saline).
Control cells were S2R+ cells mock-transfected (no DNA was introduced in the co-precipitation buffers).
After removal of the cell medium from the transfected cells of EXAMPLE 8, 100 μl of FLUO-4+ FURA-Red solution was added to well. This solution included 0.5 μl FLUO-4 stock, 0.5 μl FURA-Red stock, 0.5 μl Pluronic stock and 100 μl Stop solution. The cells were incubate in this solution at room temperature for 45 minutes. The saline was removed and 200 μl of fly saline was added. In Ca++ free conditions, the cells were washed with Ca++ free fly saline supplemented with 5 mM EGTA three times, and then 200 μl of Ca++ free, 5 mM EGTA fly saline was added. The ligand solution was then added with or without Ca++ fly saline.
The loaded cells were imaged by confocal microscopy using 488 nm excitation and Long Pass 650 nm and Band Pass 500-525 nm filters.

C=CCN=C=S [AITC, allyl-isothiocyanate]
avoidance without the third antennal segment [1]: able to avoid | preference in AITC avoidance test, males ([2]; painless-/- males, 1:10,000 dilution): slight preference for the non-AITC side | AITC detection / avoidance ([2]; painless-/- mutants, 1:10,000 dilution, compared to wild type Canton S): deficient in AITC detection | avoidance [3]: did not show the same avoidance of AITC | avoidance of AITC over time ([4]; 1:10,000 AITC): avoided the toxin for the first 30 minutes, but afterwards showed no preference for either side of the plate

CCN(CC)C(=O)c1cccc(C)c1 [DEET, N,N-diethyl-meta-toluamide]
time to begin avoiding DEET ([1]; Canton S flies without antennae): almost immediately | avoidance without the third antennal segment [1]: able to avoid | avoidance of DEET in first fifteen minutes after exposure ([1]; wild type Canton-S flies): clearly avoided DEET | lowest concentration in agar consistently avoided ([1]; wild-type Canton S flies, with and without the presence of sugar): 0.2% | avoidance of DEET in first 15 minutes ([2]; P-pain-rescue, pain1 transgenic flies (genomic painless rescue construct), females and males): some avoidance of DEET | avoidance of DEET in first fifteen minutes after exposure ([2]; pain1/pain2 females and males): failed to avoid DEET | avoidance of DEET in first fifteen minutes after exposure ([2]; pain1 females and males): failed to avoid DEET | time to avoid DEET, females relative to males ([2]; painless females vs painless males): twice as long | avoidance of DEET, females ([2]; painless-/- females): barely avoiding at the last 65 min time point | time to begin avoiding DEET ([2]; painless-/- males): about 30 minutes | avoidance of DEET without third antennal segments ([2]; painless-/- males and females with surgically removed third antennal segments): no avoidance of DEET | avoidance of DEET in first fifteen minutes of the trial ([2]; painless-Gal4 females and males): failed to avoid DEET | avoidance [3]: able to avoid DEET | exposure time until consistent avoidance of DEET ([4]; 0.2% concentration): less than 15 minutes | activity level (path lengths/min) in the presence of DEET ([5]; Canton S flies without the third antennal segment): significantly less active | activity level in the presence of DEET ([5]; Or83b flies compared to Canton S, TrpA1 and painless mutant counterparts): much less active | activity level (path lengths/min) in the presence of DEET ([5]; wild type Canton S flies with intact third-antennal segments): increased their activity level | calcium response (FLUO-4 and FURA-RED AM channels) [6]: strong calcium increases | calcium response (FLUO-4 and FURA-RED AM channels) [7]: strong calcium increases
